Measured values as given in patent US20110152373A1, “HAIR GROWTH PROMOTING AGENT CONTAINING 15,15-DIFLUOROPROSTAGLANDIN F2ALPHA DERIVATIVE AS ACTIVE INGREDIENT” (SANTAN PHARMACEUTICAL CO., LTD., priority 2008, published 2011).

System: eyelashes of patients with open-angle glaucoma or ocular hypertension
Experiment: European Phase III clinical trial: eyelash findings from photographs compared with base line
Format: in vivo, human
Settings: for Color of eyelashes was changed (number of patients with finding) / Eyelashes were grown (number of patients with finding) / Eyelashes were made thicker (number of patients with finding): eye drop (0.0015% tafluprost or 0.005% latanoprost) once a day, one drop, total 264 patients per group
Method: A European Phase III clinical trial for tafluprost, one of the 15,15-difluoroprostaglandin F2α derivatives, with patients with open-angle glaucoma or ocular hypertension was performed by the following test method, and tafluprost was evaluated for findings associated with the eyelashes and an peripheral area thereof, that is, the evaluation was performed as to whether eyelashes were grown, eyelashes were made thicker, and the color of eyelashes was changed by the following evaluation method.
Patients with open-angle glaucoma or ocular hypertension were randomly allocated to two groups (a 0.0015% tafluprost eye drop group and a 0.005% latanoprost eye drop group) and received the eye drop once a day at a dose of one drop for 24 months in a double-blind manner after a washout period for 5 days to 4 weeks or more according to need prior to the glaucoma medication.
The eyelashes and eyelids were photographed at 0 (base line), 3, 6, 12, 18, and 24 months, and the photographs were compared with the base line, and the presence or absence of findings (eyelashes were grown, eyelashes were made thicker, and the color of eyelashes was changed) was confirmed.

Structure (SMILES)	Color of eyelashes was changed (number of patients with finding) (24 months) [patients]	Eyelashes were grown (number of patients with finding) (24 months) [patients]	Eyelashes were made thicker (number of patients with finding) (24 months) [patients]	Effect of promoting the growth of hair (eyelashes), in words (0.0015% eye drop once a day for 24 months, conclusion from Table 1)	Eyelash actions compared with those of latanoprost, in words (0.0015% tafluprost eye drop vs 0.005% latanoprost eye drop, 24 months)
CC(C)OC(=O)CCC/C=C\C[C@@H]1[C@@H](CC[C@@H](O)CCc2ccccc2)[C@H](O)C[C@@H]1O [Latanoprost, latanoprost, reference compound]	10	11	4	–	–
CC(C)OC(=O)CCC/C=C\C[C@@H]1[C@@H](/C=C/C(F)(F)COc2ccccc2)[C@H](O)C[C@@H]1O [Tafluprost, tafluprost]	13	17	5	has actions of growing eyelashes, making eyelashes thicker, and changing the color thereof	significant effects as compared with those of latanoprost
